According to patent US20040077080A1, “Compositions and methods for induction of proteins involved in xenobiotic metabolism” (priority 2000, published 2004):
Where two headings read alike, the source gives them in different places.

Assays:
MDR1 P-glycoprotein mRNA = assay: Northern blot of MDR1 P-glycoprotein expression (Example VI)
From the text: FIG. 31 depicts MDR1 gene expression in LS174T cells as analyzed by Northern blot. […] Total RNA from the colon adenocarcinoma cell line LS174T was isolated and fractionated on a 1% formaldehyde gel and transferred onto a nylon membrane. The RNA blot was hybridized to ^32P-labeled MDR1 cDNA probe (top panel) or 18s rRNA probe for normalization of RNA loading on the gel (bottom panel).
(§1) FIG. 32A: Lanes 1 and 2, primary human hepatocytes; lanes 3 and 4, LS174T cells. FIG. 32B: Lanes 1 and 2, HepG2 cells; lanes 3 and 4, HepG2 that overexpress PXR (Hepg-PXR cells). FIG. 32C: Lanes 1 and 2, Caco-2; lanes 3 and 4, Caco-2 cells that overexpress PXR (Caco-PXR cells).
(§2) Total RNA from the colon adenocarcinoma cell line LS174T was isolated and fractionated on a 1% formaldehyde gel and transferred onto a nylon membrane. The RNA blot was hybridized to ^32-P-labeled MDR1 cDNA probe (top panels), ^32-P-labeled CYP3A4 cDNA probe (middle panels), or 18s rRNA probe for normalization of RNA loading on the gel (bottom panels).
(§3) FIG. 37 depicts MDR1 gene regulation in response to chrysin as studied by Northern blot analysis. […] Total RNA from the hepatocytes was isolated and fractionated on a 1% formaldehyde gel and transferred onto a nylon membrane. The RNA blot was hybridized to ^32-P-labeled MDR1 cDNA probe (top panels), ^32P-labeled CYP3A4 cDNA probe (middle panels), or 18s rRNA probe for normalization of RNA loading on the gel (bottom panels).
Northern Blot analysis for MDR1 P-glycoprotein and CYP3A4 expression: Total RNA was prepared from cells (primary hepatocytes, LS174T, HepG2, or Caco-2) using Trizol reagent (Invitrogen, Carlsbad, Calif.). For Northern blots, 15 micrograms of total RNA was fractionated on a 1% formaldehyde gel and transferred onto a nylon membrane by capillary transfer. A 530-base pair fragment of MDR1 cDNA was obtained from PCR cloning using the sense primer […] The resulting fragment was ^32P-labeled by random priming (Invitrogen, Carlsbad, Calif.) for use as an MDR1 probe. […] All constructs and cDNAs were subjected to sequence analysis. Hybridization was performed with the ExpressHyb system according to the manufacturer's instructions (Clontech, Palo Alto, Calif.).

[1] = tested on: PXR / mdr1(dr4) response element; assay: Transient transfection mdr1(dr4)-Luc reporter assay with PXR; details: Caco-2 cells transiently co-transfected with mdr1(dr4)-Luc and PXR; 48 hours
[2] = tested on: PXR / mdr1(dr4) response element; details: human, 48 h
[3] = tested on: PXR / mdr1(dr4) response element; assay: Caco-PXR/Pgp-Luc stable cell luciferase assay
Description: (§4) FIG. 35 depicts dose-response behavior to various PXR activators in stable cell lines overexpressing PXR and harboring DR4 response element. FIG. 35A: Results are shown for the stable cell line Hep-PXR/PgpLuc. FIG. 35B: Results are shown for the stable cell line Caco-PXR/PgpLuc.
(§5) Cells were exposed to the test compounds for 48 hours at the concentrations indicated.
(§6) Establishment of stable transformants containing both PXR and reporter plasmid and development of high throughput bioassay for PXR-dependent transactivation: The stable transformants Hep-PXR/mdr1(dr4)-Luc and Caco-PXR/mdr1(dr4)-Luc cell lines were generated from the parental cell lines HepG-PXR and Caco-PXR, respectively, according to the following procedure. The parental cell lines HepG-PXR and Caco-PXR, which overexpress PXR, were stably transfected with the luciferase reporter plasmid mdr1(dr4)-Luc. The transfected cells were cultured in DMEM (HepG-PXR cells) or in IMEM (Caco-PXR cells), both media supplemented with 10% fetal bovine serum and neomycin (700 micrograms per milliliter).
(§7) For the induction assay, stable transformants were seeded in 96-wells plates at a density of 1×10^4 cells per well and allowed to recover overnight. Plates were treated with test compounds at varying concentrations, using 3 replicates per dose. After 48 hours of exposure to the test compound, cells were washed with phosphate buffered saline, lysis buffer was applied to the wells, and luciferase substrate added. Following 10 minutes for light adaptation, luminescence was monitored according to the manufacturer's instructions (Packard kit, Biomed).

[4] = tested on: PXR / mdr1(dr4) response element; assay: Hep-PXR/Pgp-Luc stable cell luciferase assay
Description: as §4, §5
FIG. 36 depicts the effect of environmental and botanical chemicals on luciferase activity in the stable cell line Hep-PXR/PgpLuc. Cells were inoculated into 96-well plates at a density of 2×10^4 cells per well. After overnight recovery, cells were treated with the test compounds at the concentrations indicated for 48 hours.
as §6, §7

[5] = tested on: AhR (dioxin response elements); assay: in vitro; details: human, fold induction of luciferase activity above DMSO, DRE12-6 cells, 28 hours; TCDD 10 nanomoles per liter, omeprazole 25, 2-AAF 100, DMBA 20 micromoles per liter
CYP3A4 mRNA = details: human, 48 h, 25 µM
From the text: as §1, §2, §3
Northern Blot analysis for MDR1 P-glycoprotein and CYP3A4 expression: Total RNA was prepared from cells (primary hepatocytes, LS174T, HepG2, or Caco-2) using Trizol reagent (Invitrogen, Carlsbad, Calif.). […]

For `CC(=O)[C@H]1[C@H](C#N)C[C@H]2[C@@H]3CC=C4C[C@@H](O)CC[C@]4(C)[C@H]3CC[C@@]21C` [PCN, pregnenolone 16 alpha-carbonitrile], the “MDR1 expression in LS174T cells (in words)” value (MDR1 P-glycoprotein mRNA; LS174T cells, 48 hours) was “only a slightly increase”, the “fold increase in luciferase activity above DMSO, single concentrations (FIG. 14)” value (hPXR / CYP3A4 enhancer) was “less than two” and the “CYP3A4 induction by Northern blot (in words)” value (CYP3A4 mRNA (PXR)) was “not”. The “fold increase in luciferase activity” value [1] was “only a minor increase” and the “fold increase in luciferase activity above DMSO, single concentrations (FIG. 15)” value (CYP3A4 enhancer (PXRE)) was “less than one”.

`COc1ccc2[nH]c([S+]([O-])Cc3ncc(C)c(OC)c3C)nc2c1` (stereo not drawn) [omeprazole] was tested, and the “fold increase in luciferase activity” value [2] was 3-6 fold, the “dose dependence of luciferase induction (in words)” value [3] was “dose-dependent luciferase induction” and the “dose dependence of luciferase induction (in words)” value [4] was “dose-dependent luciferase induction”.

`O=c1cc(-c2ccccc2)oc2cc(O)cc(O)c12` [chrysin] was tested, and the “MDR1 P-glycoprotein expression in primary human hepatocytes (in words)” value (MDR1 P-glycoprotein mRNA; human, 48 h, 25 µM) was “induce the expression of both MDR1 and CYP3A4”, the fold induction [5] was 4.2 and the “CYP3A4 expression in primary hepatocytes (in words)” value (CYP3A4 mRNA) was “induce the expression of both MDR1 and CYP3A4”. For the same molecule, the “fold increase in luciferase activity” value ([4]; human, 48 h) was 5 fold.
